Measurements from patent US7498353B2, “Heterocyclic anti-viral compounds comprising metabolizable moieties and their uses” (priority 2005, dated 2009).

Columns and labels:
[1] = test system: HCV replicon in 5-2 Luc replicon-comprising cells; assay: HCV replicon assay, luciferase readout (HEPC_REPLICON-LUC); type: cell-based; conditions: Hepatitis C virus; 5-2 Luc replicon cells, 50% reduction in luciferase emission; read-out: HEPC_REPLICON-LUC Result Value (IC50)
Excerpt: In one embodiment, the inhibitory activity of the metabolically active agent of the prodrug can be confirmed in a replicon assay that assesses the ability of a test compound to block or inhibit HCV replication in replicon cells. One example of a suitable replicon assay is the liver cell-line Huh 7-based replicon assay described in Lohmann et al., 1999, Science 285:110-113. A specific example of this replicon assay which utilizes luciferase translation is provided in the Examples Section. In one embodiment of this assay, the amount of test prodrug that yields a 50% reduction in translation as compared to a control cell (IC50) may be determined.
The inhibitory activity of certain prodrugs of the invention, which may inhibit HCV translation or replication prior to metablism and/or are metabolized into active agents, was confirmed using an HCV replicon assay. The HCV replicon can include such features as the HCV 5′ untranslated region including the HCV IRES, the HCV 3′ untranslated region, selected HCV genes encoding HCV polypeptides, selectable markers, and a reporter gene such as luciferase, GFP, etc. In the assay, actively dividing 5-2 Luc replicon-comprising cells (obtained from Ralf Bartenschlager; see Lohmann et al., 1999, Science 285:110-113) were seeded at a density of between about 5,000 and 7,500 cells/well onto 96 well plates (about 90 μl of cells per well) and incubated at 37° C. and 5% CO2 for 24 hours. Then, the test prodrug (in a volume of about 10 μl) was added to the wells at various concentrations and the cells were incubated for an additional 24-48 hours before luciferase assay. The media was aspirated from each well and Bright-Glo (Promega, Madison, Wis.) luciferase assay reagents were added to each well according to the manufacturer's instructions. Briefly, the Bright-Glo reagent was diluted 1:1 with PBS and 100 μl of diluted reagent was added to each well. After 5 min of incubation at room temperature, luciferin emission was quantified with a luminometer. In this assay, the amount of test prodrug that yielded a 50% reduction in luciferase emission (IC50) was determined. This IC50 value may represent the antiviral activity of the prodrug itself, the activity of prodrug transformed into its active metabolized form, or a combination of the two.

[2] = test system: HCV NS5A protein in 9-13 replicon cells; assay: Quantitative Western blot replicon assay (HEPC_REPLICON-ICWESTERN); type: cell-based, Hepatitis C virus (HCV); conditions: Hepatitis C virus; 9-13 replicon cells, 50% reduction in NS5A protein; read-out: HEPC_REPLICON-ICWESTERN Result Value (IC50)
Description: Alternatively, the inhibitory activity of the metabolically active agents of the prodrugs can be confirmed using a quantitative Western immunoblot assay utilizing antibodies specific for HCV non-structural proteins, such as NS3, NS4A NS5A and NS5B. In one embodiment of this assay, replicon cells are treated with varying concentrations of test prodrug to determine the concentration of the metabolically active agent of the test prodrug that yields a 50% reduction in the amount of a non-structural protein produced as compared to a control sample (IC50). A single non-structural protein may be quantified or multiple non-structural proteins may be quantified. Antibodies suitable for carrying out such immunoblot assays are available commercially (e.g., from BIODESIGN International, Saco, Me.).
Certain prodrugs of the invention, which may inhibit HCV translation or replication prior to metablism and/or are metabolized into active agents, were also tested for their ability to inhibit HCV replication using a quantitative Western blot analysis with antibodies specific for the HCV NS5A or other non-structural proteins. Actively dividing 9-13 replicon cells were seeded into 6-well plates at a density of 1×10^5 cells/well in a volume of 2 ml/well and incubated at 37° C. and 5% CO2 for 24 hours. Various concentrations of test prodrugs (in a volume of 10 ul) were added to the wells and the cells incubated for another 48 hours. Protein samples were prepared from the cultured cells, resolved on a SDS-PAGE gel and transferred to a nitrocellulose membrane. The membrane was blocked with 5% non-fat milk in PBS for 1 hour at room temperature. Primary antibody (anti NS5A antibody; BIODESIGN International, Saco, Me.) incubation was performed for 1 hour at room temperature, after which the membrane was washed 3 times (for 15 min per time) with PBST (PBS plus 0.1% Tween 20). Horseradish peroxidase conjugated secondary antibody incubation was performed for 1 hour at room temperature and the membrane was washed 3 times (for 15 min per time) with PBST. The membrane was then soaked in substrate solution (Pierce) and exposed to a film or quantified using an imager. In this assay, the amount of test prodrug that is believed to be transformed into an active agent under the given conditions that yielded a 50% reduction in the amount of NS5A protein translated as compared to a control sample (IC50) was determined.

| Structure (SMILES) | IC50 [1] [nM] | IC50 [2] [nM] |
| --- | --- | --- |
| NC(CCC(=O)CCN(C(=O)C(Cl)Cl)c1ccnc(-c2cc(-c3c(Cl)cccc3Cl)no2)c1)C(=O)O (stereo not drawn) [Cpd. No. 5, 2-Amino-7-(2,2-dichloro-N-(2-(3-(2,6-dichlorophenyl)isoxazol-5-yl)pyridin-4-yl)acetamido)-5-oxoheptanoic acid] | < 1000 | < 1000 |
| CC(C)C(NC(=O)C(NC(=O)OC(C)(C)C)C(C)C)C(=O)CCN(C(=O)C(Cl)Cl)c1ccnc(-c2cc(-c3c(Cl)cccc3Cl)no2)c1 (stereo not drawn) [Cpd. No. 47, tert-Butyl 1-(6-(2,2-Dichloro-N-(2-(3-(2,6-dichlorophenyl)isoxazol-5-yl)pyridin-4-yl)acetamido)-2-methyl-4-oxohexan-3-ylamino)-3-methyl-1-oxobutan-2-ylcarbamate] | < 1000 | < 1000 |
| CC(C)C(N)C(=O)NC(C(=O)CCN(C(=O)C(Cl)Cl)c1ccnc(-c2cc(-c3c(Cl)cccc3Cl)no2)c1)C(C)C (stereo not drawn) [Cpd. No. 48, 2-Amino-N-(6-(2,2-dichloro-N-(2-(3-(2,6-dichlorophenyl)isoxazol-5-yl)pyridin-4-yl)acetamido)-2-methyl-4-oxohexan-3-yl)-3-methylbutanamide] | < 1000 | < 1000 |
| NCC(=O)CCN(C(=O)C(Cl)Cl)c1ccnc(-c2cc(-c3c(Cl)cccc3Cl)no2)c1 [Cpd. No. 60, N-(4-Amino-3-oxobutyl)-2,2-dichloro-N-(2-(3-(2,6-dichlorophenyl)isoxazol-5-yl)pyridin-4-yl)acetamide] | < 1000 | 1000 to 20000 |
| CC[C@H](C)[C@H](NC(=O)OC(C)(C)C)C(=O)N[C@H](CN(C(=O)C(Cl)Cl)c1cccc(-c2cc(-c3c(Cl)cccc3Cl)no2)c1)C(C)C [Cpd. No. 28, tert-Butyl (2S,3S)-1-((S)-1-(2,2-Dichloro-N-(3-(3-(2,6-dichlorophenyl)isoxazol-5-yl)phenyl)acetamido)-3-methylbutan-2-ylamino)-3-methyl-1-oxopentan-2-ylcarbamate] | > 20000 | – |
| CCC(C)C(N)C(=O)CCN(C(=O)C(Cl)Cl)c1ccnc(-c2cc(-c3c(Cl)cccc3Cl)no2)c1 (stereo not drawn) [Cpd. No. 59, N-(4-Amino-5-methyl-3-oxoheptyl)-2,2-dichloro-N-(2-(3-(2,6-dichlorophenyl)isoxazol-5-yl)pyridin-4-yl)acetamide] | < 1000 | < 1000 |
| CCC(C)C(NC(=O)OC(C)(C)C)C(=O)NC(C(=O)CCN(C(=O)C(Cl)Cl)c1ccnc(-c2cc(-c3c(Cl)cccc3Cl)no2)c1)C(C)C (stereo not drawn) [Cpd. No. 51, tert-Butyl 1-(6-(2,2-Dichloro-N-(2-(3-(2,6-dichlorophenyl)isoxazol-5-yl)pyridin-4-yl)acetamido)-2-methyl-4-oxohexan-3-ylamino)-3-methyl-1-oxopentan-2-ylcarbamate] | < 1000 | < 1000 |
| CCC(C)C(N)C(=O)NC(C(=O)CCN(C(=O)C(Cl)Cl)c1ccnc(-c2cc(-c3c(Cl)cccc3Cl)no2)c1)C(C)C (stereo not drawn) [Cpd. No. 52, 2-Amino-N-(6-(2,2-dichloro-N-(2-(3-(2,6-dichlorophenyl)isoxazol-5-yl)pyridin-4-yl)acetamido)-2-methyl-4-oxohexan-3-yl)-3-methylpentanamide] | < 1000 | < 1000 |
| CC(C)[C@@H](N)C(=O)CCN(C(=O)C(Cl)Cl)c1ccnc(-c2cc(-c3c(Cl)cccc3Cl)no2)c1 [Cpd. No. 61, (R)-N-(4-Amino-5-methyl-3-oxohexyl)-2,2-dichloro-N-(2-(3-(2,6-dichlorophenyl)isoxazol-5-yl)pyridin-4-yl)acetamide] | < 1000 | – |
| CC(C)C(NC(=O)C(CCC(=O)OC(C)(C)C)NC(=O)OC(C)(C)C)C(=O)CCN(C(=O)C(Cl)Cl)c1ccnc(-c2cc(-c3c(Cl)cccc3Cl)no2)c1 (stereo not drawn) [Cpd. No. 55, tert-Butyl 4-(tert-Butoxycarbonylamino)-5-(6-(2,2-dichloro-N-(2-(3-(2,6-dichlorophenyl)isoxazol-5-yl)pyridin-4-yl)acetamido)-2-methyl-4-oxohexan-3-ylamino)-5-oxopentanoate] | < 1000 | 1000 to 20000 |
| CC(C)OC(=O)OCN(C(=O)C(Cl)Cl)c1ccnc(-c2cc(-c3c(Cl)cccc3Cl)no2)c1 [Cpd. No. 57, (2,2-Dichloro-N-(2-(3-(2,6-dichlorophenyl)isoxazol-5-yl)pyridin-4-yl)acetamido)methyl Isopropyl Carbonate] | 1000 to 20000 | 1000 to 20000 |
| NCCN(C(=O)C(Cl)Cl)c1cccc(-c2cc(-c3c(Cl)cccc3Cl)no2)c1 [Cpd. No. 16, N-(2-Aminoethyl)-2,2-dichloro-N-(3-(3-(2,6-dichlorophenyl)isoxazol-5-yl)phenyl)acetamide] | 1000 to 20000 | 1000 to 20000 |
| CC(C)C(N)C(=O)CCN(C(=O)C(Cl)Cl)c1ccnc(-c2cc(-c3c(Cl)cccc3Cl)no2)c1 (stereo not drawn) [Cpd. No. 3, N-(4-Amino-5-methyl-3-oxohexyl)-2,2-dichloro-N-(2-(3-(2,6-dichlorophenyl)isoxazol-5-yl)pyridin-4-yl)acetamide] | < 1000 | < 1000 |
| CC(C)C(NC(=O)CNC(=O)OC(C)(C)C)C(=O)CCN(C(=O)C(Cl)Cl)c1ccnc(-c2cc(-c3c(Cl)cccc3Cl)no2)c1 (stereo not drawn) [Cpd. No. 49, tert-Butyl 2-(6-(2,2-Dichloro-N-(2-(3-(2,6-dichlorophenyl)isoxazol-5-yl)pyridin-4-yl)acetamido)-2-methyl-4-oxohexan-3-ylamino)-2-oxoethylcarbamate] | < 1000 | < 1000 |
| CC(C)[C@H](NC(=O)OC(C)(C)C)C(=O)NCCN(C(=O)C(Cl)Cl)c1cccc(-c2cc(-c3c(Cl)cccc3Cl)no2)c1 [Cpd. No. 30, (S)-tert-Butyl 1-(2-(2,2-Dichloro-N-(3-(3-(2,6-dichlorophenyl)isoxazol-5-yl)phenyl)acetamido)ethylamino)-3-methyl-1-oxobutan-2-ylcarbamate] | > 20000 | – |
| CC(C)C(NC(=O)C1CC(O)CN1C(=O)OC(C)(C)C)C(=O)CCN(C(=O)C(Cl)Cl)c1ccnc(-c2cc(-c3c(Cl)cccc3Cl)no2)c1 (stereo not drawn) [Cpd. No. 53, tert-Butyl 2-(6-(2,2-Dichloro-N-(2-(3-(2,6-dichlorophenyl)isoxazol-5-yl)pyridin-4-yl)acetamido)-2-methyl-4-oxohexan-3-ylcarbamoyl)-4-hydroxypyrrolidine-1-carboxylate] | < 1000 | < 1000 |
| CC(C)[C@@H](NC(=O)OCN(C(=O)C(Cl)Cl)c1ccnc(-c2cc(-c3c(Cl)cccc3Cl)no2)c1)C(=O)OC(C)(C)C [Cpd. No. 58, (R)-tert-Butyl 2-(((2,2-Dichloro-N-(2-(3-(2,6-dichlorophenyl)isoxazol-5-yl)pyridin-4-yl)acetamido)methoxy)carbonylamino)-3-methylbutanoate] | > 20000 | 1000 to 20000 |
| CC(C)C(NC(=O)CN)C(=O)CCN(C(=O)C(Cl)Cl)c1ccnc(-c2cc(-c3c(Cl)cccc3Cl)no2)c1 (stereo not drawn) [Cpd. No. 50, N-(4-(2-Aminoacetamido)-5-methyl-3-oxohexyl)-2,2-dichloro-N-(2-(3-(2,6-dichlorophenyl)isoxazol-5-yl)pyridin-4-yl)acetamide] | < 1000 | < 1000 |
